These results are taken from patent publication US20150297509A1, “IMPLANTABLE DRUG DELIVERY COMPOSITIONS AND METHODS OF TREATMENT THEREOF” (BRAEBURN PHARMACEUTICALS BVBA SPRL, priority 2012, published 2015).

A short description of data set [1]: in vitro elution of lidocaine from TECOFLEX EG-93A polyurethane implants. The class given is physicochemical. Particulars: TECOFLEX EG-93A tubing, about 180 mg pure lidocaine without excipients, 300 mL 0.9% saline at 37° C, daily exchanges, up to 8 days; for release of drug from the implant (in vitro elution): HPLC. The protocol: (§1) The follow general procedure was followed for the manufacture of API-containing implants.
(§2) Sterilization was accomplished by gamma irradiation of the implants.
A total of about 180 mg pure (100%) lidocaine were loaded into the implant without any excipients (without any sorption enhancer or lubricant).

The nature of data set [2]: in vitro elution of raloxifene from TECOFLEX EG-80A polyurethane implants. The following applies: TECOFLEX EG-80A tubing, 88% API, 10% croscarmellose sodium, 2% stearic acid, about 250 mg raloxifene, 800 mL 0.9% saline at 37° C, weekly exchanges, HPLC, up to 20 weeks. The class given is physicochemical. As to the method:
as §1, §2
The drug blend was 88% API, 10% sorption enhancer, and 2% lubricant. […] A total of about 250 mg raloxifene were loaded into the implant with 10% croscarmellose sodium and 2% stearic acid.

For data set [3] the following is noted: oral dosage form, target oral daily dose about 60 mg; cited from earlier work.

Counter-ions that a name gives are not always drawn.

As to `CCN(CC)CC(=O)Nc1c(C)cccc1C` [lidocaine free base], in data set [1], the “release of drug from the implant (in vitro elution)” value (“release of drug from the implant” for short) is “readily released” and the “in vitro elution rate from the implant” value is on record as “more than 10 mg/day”.

On to `CCN(CC)CC(=O)Nc1c(C)cccc1C` [lidocaine hydrochloride], for which the entries for the “release of drug from the implant” value in data set [1] and in data set [1] (listed as lidocaine HCl) were “No drug was released” and “no drug was released”, respectively.

For `O=C(c1ccc(OCCN2CCCCC2)cc1)c1c(-c2ccc(O)cc2)sc2cc(O)ccc12` [raloxifene free base, [6-hydroxy-2-(4-hydroxyphenyl)-benzothiophen-3-yl]-[4-[2-(1-piperidyl)ethoxy]phenyl]-methanone], the “release of drug from the implant” value in data set [2] was “readily released”.

On to `O=C(c1ccc(OCCN2CCCCC2)cc1)c1c(-c2ccc(O)cc2)sc2cc(O)ccc12` [raloxifene hydrochloride], for which the “release of drug from the implant” value was “No drug was released” in data set [2] and “no drug was released” in data set [2] (listed as raloxifene HCI). In data set [3], the oral bioavailability is reported as roughly 2%.
